Test results as given in US7423020B2, “Treatment of mood disorders by administration of SMR1” (Institut Pasteur, priority 2001, dated 2008).
Where a SMILES comes first, the peptide text is derived from it.

Key:
[1] = tested on: adult male rats; settings: PCT patent application WO 01/00 221; cited from earlier work
[2] = tested on: male Wistar/AF EOPS rats; assay: Behavioral despair test (forced swimming); assay type: in vivo, rat; set-up: change of period of immobility, retest compared with test: dose or concentration left out as unconfirmed; settings: for Immobility period, Retest / Immobility period, Test: first 5 minutes, n = 10; for Immobility period, Test: test session before any treatment
[3] = molecular target: T1, NEP (Rattus norvegicus, UniProt P07861); assay: Met-enkephalin degradation by rat spinal cord slices, RIA assay; assay type: biochemical; settings: 10 μM; fresh spinal cord slices; 20 min at 25° C.; 10 μM Met-enkephalin
T1 construct: incubations of membrane and fresh tissue slice preparations from nervous tissues; from tissue; host or cells: rat spinal cord (dorsal zone), fresh slices or 100 000 x g membrane fraction
T1 sequence (P07861 1-750): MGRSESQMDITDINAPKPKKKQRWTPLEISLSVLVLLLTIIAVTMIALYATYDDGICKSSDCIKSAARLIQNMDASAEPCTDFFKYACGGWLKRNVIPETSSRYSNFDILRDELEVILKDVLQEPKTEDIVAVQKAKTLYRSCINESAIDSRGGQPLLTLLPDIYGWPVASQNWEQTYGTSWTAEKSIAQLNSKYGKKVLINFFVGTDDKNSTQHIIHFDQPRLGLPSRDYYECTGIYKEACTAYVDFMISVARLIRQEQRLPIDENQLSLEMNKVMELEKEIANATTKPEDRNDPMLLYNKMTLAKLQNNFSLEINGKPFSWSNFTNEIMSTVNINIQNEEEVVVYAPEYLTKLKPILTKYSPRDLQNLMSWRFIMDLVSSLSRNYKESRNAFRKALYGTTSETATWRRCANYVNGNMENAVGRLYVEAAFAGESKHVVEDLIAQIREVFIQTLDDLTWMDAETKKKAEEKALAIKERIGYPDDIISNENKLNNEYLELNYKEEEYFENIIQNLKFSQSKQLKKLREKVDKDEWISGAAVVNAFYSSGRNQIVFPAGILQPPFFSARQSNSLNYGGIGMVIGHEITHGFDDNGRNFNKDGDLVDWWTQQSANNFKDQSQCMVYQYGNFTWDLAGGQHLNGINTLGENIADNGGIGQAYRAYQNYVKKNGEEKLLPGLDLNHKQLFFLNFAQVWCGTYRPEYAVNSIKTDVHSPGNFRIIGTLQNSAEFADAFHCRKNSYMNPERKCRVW
Protocol: For the experiments of analysis of the NEP peptidase activity, an ex vivo model using incubations of membrane and fresh tissue slice preparations from nervous tissues that are known to be appropriate for exploring NEP peptidase activity: i.e. the dorsal zone of rat spinal cord, was first developed. […] (NEN, 12.5-25 nM) were used.
The objective was to measure the NEP-specific endoproteolysis of these substrates.

[4] = molecular target: T2, purified rabbit kidney NEP (Oryctolagus cuniculus, UniProt P08049); assay: Direct interaction with purified rabbit kidney NEP in vitro; assay type: binding
T2 construct: using purified rabbit kidney NEP; from tissue; host or cells: rabbit kidney
T2 sequence (P08049 1-750): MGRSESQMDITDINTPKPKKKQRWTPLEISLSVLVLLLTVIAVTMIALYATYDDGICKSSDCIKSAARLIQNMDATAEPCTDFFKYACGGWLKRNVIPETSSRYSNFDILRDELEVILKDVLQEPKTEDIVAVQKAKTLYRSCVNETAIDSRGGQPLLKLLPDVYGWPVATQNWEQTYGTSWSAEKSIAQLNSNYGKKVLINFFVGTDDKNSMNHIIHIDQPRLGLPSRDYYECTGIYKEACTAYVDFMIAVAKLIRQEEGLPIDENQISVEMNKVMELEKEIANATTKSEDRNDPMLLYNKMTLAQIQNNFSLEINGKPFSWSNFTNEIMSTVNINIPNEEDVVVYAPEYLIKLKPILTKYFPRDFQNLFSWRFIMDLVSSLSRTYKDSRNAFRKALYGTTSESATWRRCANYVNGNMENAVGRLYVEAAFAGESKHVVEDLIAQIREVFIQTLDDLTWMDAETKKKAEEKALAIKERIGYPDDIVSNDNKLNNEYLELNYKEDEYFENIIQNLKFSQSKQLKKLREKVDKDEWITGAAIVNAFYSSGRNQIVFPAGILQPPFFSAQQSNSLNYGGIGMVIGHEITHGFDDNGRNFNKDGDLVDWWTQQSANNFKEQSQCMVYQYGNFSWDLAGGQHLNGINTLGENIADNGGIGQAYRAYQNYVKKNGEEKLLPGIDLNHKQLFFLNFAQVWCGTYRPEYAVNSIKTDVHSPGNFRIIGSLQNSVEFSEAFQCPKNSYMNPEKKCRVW

N=C(N)NCCC[C@H](NC(=O)[C@@H]1CCCN1C(=O)[C@H](CC(N)=O)NC(=O)[C@H](Cc1c[nH]cn1)NC(=O)[C@@H](N)CCC(N)=O)C(=O)O [SMR1-QHNPR, QHNPR] (H-QHNPR-OH; N-terminus and C-terminus assumed)
effect on sexual behavior and aggressive impulse behavior [1]: dose-dependent improvement on the sexual behavior of adult male rats with a loss of the aggressive impulse behavior
Immobility period, Retest ([2]; 50 μg/kg i.v., 1440, 300, 5 min before the retest): 141.20 ± 21.28
Immobility period, Retest ([2]; 100 μg/kg i.v., 1440, 300, 5 min before the retest): 121.50 ± 17.47
Immobility period, Test ([2]; FG-50 group, 50 μg/kg i.v.): 119.00 ± 13.79
Immobility period, Test ([2]; FG-100 group, 100 μg/kg i.v.): 138.30 ± 11.03
change of period of immobility, retest compared with test ([2]; dose of 100): reduce it
protection of Met-enkephalin from degradation (RIA) [3]: 96%
direct interaction with NEP [4]: direct interaction of rat kidney NEP and SMR1-Pentapeptide was demonstrated
